Assay results taken from patent publication US20210238201A1, “ANTIMICROBIAL COMPOUNDS AND COMPOSITIONS” (AGROFRESH INC., priority 2020, published 2021).
In brackets after ≈: the same amount, converted by molar mass.

Legend:
Penicillium expansum = assay: in vitro inhibition assay for volatile antimicrobial compounds (headspace, PDA agar); type: cell-based; conditions: volatile headspace exposure
Procedure: [The procedure below names another organism; the source lists this organism under the same test.] (§1) 12-well (6.5 ml volume per well) microtiter plates are used for the in vitro inhibition assay for volatile antimicrobial compounds. A 3-ml volume of full-strength Potato Dextrose Agar (PDA) is added to each well. After cooling, 1 μL of 1×10^5 spores per ml Botrytis cinerea (ATCC #204446) spore suspension is spot pipetted to the agar in the center of the well. Whatman #1 filter disks (1.5 cm; Cat. No. 1001-0155) are placed on the underside of a polyethylene PCR plate sealing film. For determination of the minimum inhibitory concentration (MIC), test compounds are diluted in acetone, in duplicate, and 50 μli of the compound solution is added to disks at concentrations that can vary from 0.001 mg/l to 1142.9 mg/l. The acetone is permitted to evaporate for 5 minutes. The headspace around the Botrytis cinerea inoculum is then sealed inside the well by the film with the adhering disk containing the antimicrobial, anti-decay, anti-spoilage, or pathogen control agent. Plates are inverted to prevent any possibility of the chemical from flaking from the disk and falling onto the inoculated agar.

Alternaria alternata = assay: as above; type: cell-based; conditions: volatile headspace exposure
Procedure: [The procedure below names another organism; the source lists this organism under the same test.] as §1

Glomerella cingulata = assay: as above; type: cell-based; conditions: Colletotrichum gloeosporioides; volatile headspace exposure
[1] = test system: Botrytis cinerea (ATCC #204446); assay: Strawberry in vivo analysis, volatile bioassay on wound-inoculated strawberry; set-up: species or system Botrytis cinerea on strawberry
Procedure: In order to assess the in vivo activity of volatile antimicrobial compounds, a volatile bioassay is developed using strawberry. Fruit (6 to 8) are placed inside a 1 lb clamshell (Packaging Direct Inc.; Product #4341699) with the calyx facing downward. The strawberry fruit are wound-inoculated by pipetting 20 μL of 1×10^6 spore per ml Botrytis cinerea (ATCC #204446) into a wound approximately 5 mm deep and 2.6 mm in width. The clamshell is placed inside a 2.55 L plastic container (Snapware; Model #1098421). A Whatman #1 filter paper (4.25 cm; Cat. No. 1001-042) is placed on a watchglass, which is then placed on top of the closed clamshell lid. For determination of the MIC, test compounds are diluted in acetone, and 400 μl of the solution is added to disks, in duplicate, in a dose dependent manner (for example 0.4 to 50 mg/liter). The acetone is permitted to evaporate for 5 minutes. The plastic containers are then closed and placed for 3 days at 21° C. Clamshells are then removed from the treatment plastic container and placed into separate larger secondary containers for a further 3 days of evaluation at 21° C. During these 3 days, fruit are evaluated daily for incidence and severity of disease and symptoms of phytotoxicity.

[2] = test system: Botrytis cinerea (ATCC #204446); assay: in vitro inhibition assay for volatile antimicrobial compounds (headspace, PDA agar); type: cell-based; conditions: Botrytis cinerea, ATCC204446, 72 h, volatile headspace exposure, 3 days at 23° C.
Procedure: as §1

Monilinia fructicola = assay: as above; type: cell-based; conditions: volatile headspace exposure
Procedure: [The procedure below names another organism; the source lists this organism under the same test.] as §1

[3] = test system: Botrytis cinerea (ATCC #204446); assay: Grape in vivo analysis, volatile bioassay on inoculated green table grape; set-up: species or system Botrytis cinerea on green table grape
Procedure: In order to assess the in vivo activity of volatile antimicrobial compounds, a volatile bioassay is developed using green table grape. Fruit are removed from the rachis, and 16 to 20 fruit are placed inside a 1 dry pint clamshell (Produce Packaging; Product #03231004KZ) with the stem wound facing upwards. The grapes are inoculated by pipetting 20 μL of 1×10^6 spore per ml Botrytis cinerea (ATCC #204446) into the stem wound. The clamshell is placed inside a 2.55 L plastic container (Snapware; Model #1098421). A Whatman #1 filter paper (4.25 cm; Cat. No. 1001-042) is placed on a watchglass, which is then placed on top of the closed clamshell lid. For determination of the MIC, test compounds are diluted in acetone, and 400 μl of the solution is added to disks, in duplicate, in a dose dependent manner (for example 0.4 to 50 mg/liter). The acetone is permitted to evaporate for 5 minutes. The plastic containers are then closed and placed for 3 days at 21° C. Clamshells are then removed from the treatment plastic container and placed into separate larger secondary containers for a further 3 days of evaluation at 21° C. During these 3 days, fruit are evaluated daily for incidence and severity of disease and symptoms of phytotoxicity.

[4] = test system: Escherichia coli (ATCC #25922); assay: in vitro inhibition assay for volatile antimicrobial compounds against bacteria (LB agar); type: cell-based; conditions: volatile headspace exposure, 2 days at 23° C.
Procedure: 12-well (6.5 ml volume per well) microtiter plates are used for the in vitro inhibition assay for volatile antimicrobial compounds. A 3-ml volume of full-strength L^B Agar is added to each well. After cooling, 15 μL of Escherichia coli (ATCC #25922) adjusted to an optical density of 0.02 to 0.035, and further diluted 1/10 is pipetted to the center of the agar. The plate is tilted to distribute bacteria uniformly. Whatman #1 filter disks (1.5 cm; Cat. No. 1001-0155) are placed on the underside of a polyethylene PCR plate sealing film. […] The acetone is permitted to evaporate for 5 minutes. The headspace around the Escherichia coli inoculum is then sealed inside the well by the film with the adhering disk containing the antimicrobial, anti-decay, anti-spoilage, or pathogen control agent. Plates are inverted, placed over the treated disks and sealed to prevent any of the chemical from flaking from the disk and falling onto the inoculated agar. After 2 days of incubation at 23° C., cultures were evaluated for colony growth relative to control.

[5] = symptoms of phytotoxicity evaluated daily

CC(C)(COB1OCc2ccccc21)COB1OCc2ccccc21 [Compound 2, 1,1′-((2,2-dimethylpropane-1,3-diyl)bis(oxy))bis(1,3-dihydrobenzo[c][1,2]oxaborole)]
EC50 (Penicillium expansum): 12.2 µg/mL (≈ 36.3 µM) | MIC (Penicillium expansum): 71.4 µg/mL (≈ 212 µM) | EC50 (Alternaria alternata): 2.3 µg/mL (≈ 6.85 µM) | MIC (Alternaria alternata): 8.9 µg/mL (≈ 26.5 µM) | EC50 (Glomerella cingulata): 9.1 µg/mL (≈ 27.1 µM) | MIC (Glomerella cingulata): 143 µg/mL (≈ 425 µM)

c1ccc2c(c1)COB2OCCOB1OCc2ccccc21 [Compound 1, 1,2-bis(benzo[c][1,2]oxaborol-1(3H)-yloxy)ethane]
phytotoxicity in strawberry in vivo analysis [1, 5]: no phytotoxicity | antimicrobial activity against Botrytis cinerea in strawberry in vivo analysis ([1]; wound-inoculated, 3 days treatment at 21° C. plus 3 days evaluation): good antimicrobial activity | MIC [2]: 2.2 µg/mL (≈ 7.48 µM) | EC50 ([2]; growth relative to control): 0.9 µg/mL (≈ 3.06 µM) | EC50 (Monilinia fructicola): 6.8 µg/mL (≈ 23.1 µM) | MIC (Monilinia fructicola): 35.7 µg/mL (≈ 121 µM) | EC50 (Penicillium expansum): 2.5 µg/mL (≈ 8.51 µM) | MIC (Penicillium expansum): 8.9 µg/mL (≈ 30.3 µM) | EC50 (Alternaria alternata): < 0.6 µg/mL | MIC (Alternaria alternata): 8.9 µg/mL (≈ 30.3 µM) | EC50 (Glomerella cingulata): 11.1 µg/mL (≈ 37.8 µM) | MIC (Glomerella cingulata): 143 µg/mL (≈ 486 µM) | antimicrobial activity against Botrytis cinerea in grape in vivo analysis ([3]; stem wound inoculated, 3 days treatment at 21° C. plus 3 days evaluation): good antimicrobial activity | phytotoxicity in grape in vivo analysis [3, 5]: no phytotoxicity | antimicrobial activity against Escherichia coli (colony growth relative to control) [4]: good antimicrobial activity
